Experimental findings from publication PMC10303900, “Discovery of a New Chalcone-Trimethoxycinnamide Hybrid with Antimitotic Effect: Design, Synthesis, and Structure—Activity Relationship Studies” (Pharmaceuticals, 2023) are described below.

One test has as its system HPAEpiC. The experiment in a line: SRB growth inhibition assay, non-tumor pulmonary alveolar epithelial cells. In kind it is cell-based. The conditions noted are these: Homo sapiens, Epithelial cell, 48 h. The procedure: (§1) A sulforhodamine B (SRB) assay was performed to evaluate the in vitro growth inhibitory activity of all synthesized hybrids, as well as intermediates in the human tumor cell lines of melanoma (A375-C5), breast adenocarcinoma (MCF-7), and colorectal carcinoma (HCT116), as well as on the non-tumor Human Pulmonary Alveolar Epithelial cell line (HPAEpiC). The concentration inducing 50% cell growth inhibition (GI50), was calculated. […] The overall results prompt us to further investigate the mechanism behind the cytotoxic activities of compounds 6, 7, and 13 in colorectal tumor cells. Moreover, in silico studies were performed, aiming to screen for drug-likeness.
(§2) A375-C5 (melanoma) and MCF-7 (breast adenocarcinoma) cell lines were obtained from the European Collection of Cell Culture, UK, and were grown in RPMI-1640 medium (Roswell Park Memorial Institute, Biochrom, Cambridge, UK) with 5% inactivated FBS (fetal bovine serum, Biochrom). HCT-116 (colon adenocarcinoma) cells were grown in DMEM medium (Dulbecco’s Modified Eagle’s, Biochrom) with 5% inactivated FBS. The non-tumor human pulmonary alveolar epithelial cells (HPAEpiC) were obtained from ScienCell Research Laboratories and grown in DMEM medium supplemented with 10% FBS and 1% non-essential amino acids (Sigma-Aldrich Co., Saint Louis, MO, USA). All cell lines were maintained in a humidified incubator (Hera Cell, Heraeus, Hanau, Germany) at 37 °C and with 5% CO2, and cell viability was regularly monitored using the exclusion trypan blue dye.
(§3) A total of 5.0 × 10^4 A375-C5, MCF-7, and HCT-116 cells, or 6.0 × 10^4 HPAEpiC cells were seeded in 96-well plates and incubated at 37 °C and 5% CO2 to allow for cell attachment. After 24 h, cells were treated with two-fold serial dilutions of test compounds (0–150 µM), or with DMSO as the compound solvent. In parallel, cells in a time-zero (T0) plate, without treatment, were fixed with 50% (m/v) trichloroacetic acid (TCA, Merck Millipore, Darmstadt, Germany), for 1 h at 4 °C, and then washed with distilled water and left to dry. Forty-eight hours after compound treatment, cells were fixed with 50% TCA and stained with SRB (Sigma-Aldrich Co., Ltd., Gillingham, UK) for 30 min at room temperature, followed by 5 rounds of washing with 1% (v/v) acetic acid (Merck Milli-pore, Darmstadt, Germany). SRB–protein complexes were then solubilized with […] Tris buffer (Sigma-Aldrich Co., Ltd., Gillingham, UK) for 30 min, and the absorbance was measured at 515 nm in a microplate reader (Biotek Synergy 2, BioTek Instruments, Inc., Winooski, VT, USA). A dose-response curve was obtained for each cell line, and the concentration that caused 50% cell growth inhibition (GI50) was calculated.

Another test relates to HCT116 p53−/−. The experiment in a line: SRB growth inhibition assay, p53 knocked-out colorectal cells. In kind it is cell-based, human. The procedure:
as §3

In another test the test system is MCF-7. The experiment in a line: SRB growth inhibition assay, breast adenocarcinoma cells. In kind it is cell-based. As to conditions: Homo sapiens, MCF7, 48 h. The protocol: as §1, §2, §3
The next test has as its target T1, p53–MDM2 interaction (Homo sapiens, UniProt Q00987).
T1 construct: expressed in transfected cells; host or cells: Saccharomyces cerevisiae strain CG379
The experiment in a line: Yeast targeted screening assay of p53–MDM2 interaction. The conditions noted are these: 10 μM, yeast cell-based assay, data not shown. The protocol:
However, since CM-M345 (1) has been previously reported as a p53-MDM2 inhibitor by our research group, the effect of 10 μM of compounds 6, 7, and 13 on the p53–MDM2 interaction was analyzed using yeast cell-based assays.
Saccharomyces cerevisiae (strain CG379) expressing human wt p53 alone and combined with human MDM2 were obtained in previous works. For the expression of human proteins (routinely grown in minimal selective medium), cells were diluted to 0.05 OD600 in selective induction medium containing 2% (w/w) galactose, 1% (w/w) raffinose, 0.7% (w/w) yeast nitrogen base without amino acids from Difco (Quilaban, Sintra, Portugal), and all the amino acids required for yeast growth ([…]) except leucine and tryptophan. Yeast cells were incubated at 30 °C under continuous orbital shaking (200 rpm) with 10 µM compounds or 0.1% DMSO only, for approximately 42 h (time required by the control yeast, co-transformed with the empty vectors and incubated with DMSO only, to achieve 0.4 OD600). Yeast growth was analyzed by counting the number of colony-forming units (CFU) after 2 days of incubation at 30 °C on Sabouraud Dextrose Agar from Liofilchem (Frilabo, Porto, Portugal).

T1 sequence (Q00987 whole entry): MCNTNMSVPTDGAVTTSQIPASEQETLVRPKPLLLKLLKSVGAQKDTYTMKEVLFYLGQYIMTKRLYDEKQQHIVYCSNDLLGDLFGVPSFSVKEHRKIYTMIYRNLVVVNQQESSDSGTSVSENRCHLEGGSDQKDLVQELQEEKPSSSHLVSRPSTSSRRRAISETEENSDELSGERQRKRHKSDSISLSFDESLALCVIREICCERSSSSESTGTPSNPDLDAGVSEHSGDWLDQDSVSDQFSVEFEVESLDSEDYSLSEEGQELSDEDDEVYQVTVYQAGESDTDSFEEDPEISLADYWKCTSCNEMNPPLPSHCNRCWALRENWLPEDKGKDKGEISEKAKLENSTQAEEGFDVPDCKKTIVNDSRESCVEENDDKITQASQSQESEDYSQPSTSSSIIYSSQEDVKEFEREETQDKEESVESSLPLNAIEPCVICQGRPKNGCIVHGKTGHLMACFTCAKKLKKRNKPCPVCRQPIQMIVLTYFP

As for `CCCc1c(OCCNC(=O)/C=C/c2cc(OC)c(OC)c(OC)c2)ccc(C(=O)/C=C/c2cc(OC)c(OC)c(OC)c2)c1O` [Compound 7, (E)-N-(2-(3-hydroxy-2-propyl-4-((E)-3-(3,4,5-trimethoxyphenyl)acryloyl)phenoxy)ethyl)-3-(3,4,5-trimethoxyphenyl)acrylamide], the GI50 (as a rule, the concentration giving 50% growth inhibition) in the test with HPAEpiC is 57.2 ± 8.68 µM; with HCT116 p53−/− (Homo sapiens, HCT-116, Table 2, 48 h), 1.3 ± 0.09 µM; in the test on MCF-7, above 75 µM. Besides, the “SI, selective index (GI50 of HCT116 p53−/−/GI50 of HCT116 p53+/+)” value in the test with HCT116 p53−/− stood at 0.40. At p53–MDM2 interaction, the “Effect on the p53–MDM2 interaction (reversal of the negative growth effect of MDM2 on p53)” value is on record as “none of the tested compounds significantly reversed the negative inhibitory growth effect of MDM2 on p53”.
